Test [1] relates to glioma cells. The conditions noted are these: Transwell assays; Soroceanu et al.; cited from earlier work.
The next test concerns membrane of glioma cells. The conditions noted are these: Soroceanu et al. 1998; cited from earlier work.
The test system of test [2] is primitive neuroectodermal tumors. In words: Histochemical staining of biopsy sections with biotinylated chlorotoxin, summary. It counts as binding, human. The conditions noted are these: of 53 patients tested. The text has this:
Most of the samples of human tissue, from both sexes, of different ages and races were obtained through the Cooperative Human Tissue Network, Tissue Procurement at UAB, UAB hospitals and the Human Brain Tissue Bank in London, Canada. Snap frozen tissue and fresh tissue embedded in a freezing gel were sliced at 8 microns and picked up onto positively charged glass slides. The sections were then fixed in 4% paraformaldehyde or milloniqs according to the staining protocol. Paraffin blocks were sectioned and prepared according to standard procedures.
Biopsy sections were blocked for 1 hour in 10% normal goat serum in PBS and treated with a dilution of biotinylated chlorotoxin overnight at 4° C. […]
Finally, a third adjacent section was stained with both hematoxylin, a cell nuclei specific stain, and eosin, a cytoplasmic stain. Therefore, for each tissue analyzed, three adjacent sections were stained. […] In the photomicrographs, adjacent sections are identified as follows: TM-601: biotinylated chlorotoxin detected by a brown reaction product of DAB with the biotin and further counterstained with methyl. green; Control: the control section stained with only methyl green; and, H&E: the hematoxylin and eosin stained section. […]

Test [3] relates to glioma cells. Particulars: Ullrich and Sontheimer 1997; cited from earlier work.

As for chlorotoxin, the “effect on glioma cell migration” value with glioma cells [1] was “inhibits the ability of glioma cells to migrate”. The “binding to glioma cells” value with membrane of glioma cells is recorded as “selectively binds to the membrane of glioma cells”. Moreover, the “patients whose tumor material showed chlorotoxin specificity” value in test [2] is given as 50. The “effect on glioma cell proliferation” value in the test on glioma cells [3] is “enhances glioma cell proliferation”.

The values are drawn from patent US20150010473A1, “DIAGNOSIS AND TREATMENT OF TUMORS” (MORPHOTEK, INC., priority 2006, published 2015).
